# In patent US20260138961A1, “MODULATORS OF MITOCHONDRIAL DNA REPLICATION” (Pretzel Therapeutics, Inc., priority 2022, published 2026):
# Biological target: T1, POLγA:G848S (Homo sapiens, UniProt P54098, G848S)
# T1 sequence (P54098 1-1239 G848S): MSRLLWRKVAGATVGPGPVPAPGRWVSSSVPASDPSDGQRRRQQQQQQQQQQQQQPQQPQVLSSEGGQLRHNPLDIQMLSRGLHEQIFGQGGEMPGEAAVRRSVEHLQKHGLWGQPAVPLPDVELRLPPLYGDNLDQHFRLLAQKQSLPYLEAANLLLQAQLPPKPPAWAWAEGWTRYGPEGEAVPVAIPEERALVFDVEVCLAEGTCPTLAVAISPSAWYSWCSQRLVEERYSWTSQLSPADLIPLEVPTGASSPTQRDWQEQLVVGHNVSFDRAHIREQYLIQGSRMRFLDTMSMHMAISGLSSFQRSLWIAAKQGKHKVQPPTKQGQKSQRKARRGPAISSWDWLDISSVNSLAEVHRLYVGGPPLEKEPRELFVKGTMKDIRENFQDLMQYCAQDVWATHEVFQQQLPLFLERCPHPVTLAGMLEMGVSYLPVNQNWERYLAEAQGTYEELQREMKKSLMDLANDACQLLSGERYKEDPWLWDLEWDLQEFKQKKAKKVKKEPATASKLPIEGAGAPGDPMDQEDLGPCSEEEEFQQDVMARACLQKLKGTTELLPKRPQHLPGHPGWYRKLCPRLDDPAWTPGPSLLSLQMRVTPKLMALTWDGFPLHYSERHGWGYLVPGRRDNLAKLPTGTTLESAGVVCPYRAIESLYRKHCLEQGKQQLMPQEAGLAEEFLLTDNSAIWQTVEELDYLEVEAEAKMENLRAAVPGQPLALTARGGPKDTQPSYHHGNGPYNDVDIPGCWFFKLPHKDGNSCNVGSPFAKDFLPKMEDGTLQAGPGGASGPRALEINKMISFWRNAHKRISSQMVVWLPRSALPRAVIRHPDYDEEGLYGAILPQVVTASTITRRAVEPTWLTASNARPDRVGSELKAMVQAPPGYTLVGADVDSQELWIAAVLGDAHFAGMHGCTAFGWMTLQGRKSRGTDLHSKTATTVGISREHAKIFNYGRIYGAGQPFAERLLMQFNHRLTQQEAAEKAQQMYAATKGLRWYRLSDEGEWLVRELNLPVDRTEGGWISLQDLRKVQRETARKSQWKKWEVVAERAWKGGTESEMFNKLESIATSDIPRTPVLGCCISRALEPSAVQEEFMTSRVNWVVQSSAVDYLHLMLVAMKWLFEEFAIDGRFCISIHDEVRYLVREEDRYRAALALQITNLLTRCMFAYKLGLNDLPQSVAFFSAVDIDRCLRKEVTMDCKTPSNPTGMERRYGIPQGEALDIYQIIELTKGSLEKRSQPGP
# T1 sequence (Q9UHN1 1-485 partner): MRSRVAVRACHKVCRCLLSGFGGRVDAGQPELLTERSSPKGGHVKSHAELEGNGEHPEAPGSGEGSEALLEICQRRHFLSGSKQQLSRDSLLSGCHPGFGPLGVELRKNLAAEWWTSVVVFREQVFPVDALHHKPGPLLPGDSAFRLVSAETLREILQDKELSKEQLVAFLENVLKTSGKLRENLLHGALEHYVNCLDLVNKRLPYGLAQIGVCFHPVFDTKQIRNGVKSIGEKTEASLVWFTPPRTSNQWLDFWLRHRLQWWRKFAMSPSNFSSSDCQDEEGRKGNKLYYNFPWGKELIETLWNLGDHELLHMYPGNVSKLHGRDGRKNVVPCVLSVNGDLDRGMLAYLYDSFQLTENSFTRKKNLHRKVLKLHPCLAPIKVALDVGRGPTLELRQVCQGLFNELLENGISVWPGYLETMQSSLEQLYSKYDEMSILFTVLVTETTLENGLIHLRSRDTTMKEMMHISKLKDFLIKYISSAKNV
# Experiment: DNA polymerization assay, POLγA:G848S mutant
# Format: biochemical
# Details: stimulation of polymerase activity, primed M13mp18 ssDNA, 37° C. 2 hours; read-out: G848S AC50
row,AC50,Structure (SMILES)
1,> 100 µM,"Cc1cc(S(=O)(=O)N[C@@H]2CCCN(C(=O)N3CCCC3)C2)c(C)cc1Cl [Example 153, (R)-4-chloro-2,5-dimethyl-N-(1-(pyrrolidine-1-carbonyl)piperidin-3-yl)benzenesulfonamide]"
2,2 µM,"O=S(=O)(Nc1csc(-c2ccccc2)n1)c1cccc(C(F)(F)F)c1 [Example 151, N-(2-phenylthiazol-4-yl)-3-(trifluoromethyl)benzenesulfonamide]"
3,9 µM,"Cc1cc(S(=O)(=O)Nc2cccc(C(=O)N3CCCC4(CC4)C3)c2)c(C)cc1Cl [Example 105, N-(3-(5-azaspiro[2.5]octane-5-carbonyl)phenyl)-4-chloro-2,5-dimethylbenzenesulfonamide]"
4,67 µM,"Cc1cc(S(=O)(=O)Nc2cccc(C(=O)N3CCC[C@H]3CO)c2)c(C)cc1Cl [Example 145, (S)-4-chloro-N-(3-(2-(hydroxymethyl)pyrrolidine-1-carbonyl)phenyl)-2,5-dimethylbenzenesulfonamide]"
5,> 100 µM,"O=S(=O)(Nc1csc(-c2ccccc2)n1)c1ccc(C(F)(F)F)cc1F [Example 141, 2-fluoro-N-(2-phenylthiazol-4-yl)-4-(trifluoromethyl)benzenesulfonamide]"
6,> 100 µM,"Cc1cc(S(=O)(=O)N[C@@H]2CCCN(c3ccccc3)C2)c(C)cc1Cl [Example 149, (R)-4-chloro-2,5-dimethyl-N-(1-phenylpiperidin-3-yl)benzenesulfonamide]"
7,4 µM,"Cc1cc(S(=O)(=O)Nc2cccc(-c3ncc(C#N)s3)c2)c(C)cc1Cl [Example 96, 4-chloro-N-(3-(5-cyanothiazol-2-yl)phenyl)-2,5-dimethylbenzenesulfonamide]"
8,> 100 µM,"O=S(=O)(Nc1csc(-c2ccccc2)n1)c1ccc(F)c(F)c1 [Example 122, 3,4-difluoro-N-(2-phenylthiazol-4-yl)benzenesulfonamide]"
9,11 µM,"O=S(=O)(Nc1csc(-c2ccccc2)n1)c1ccc2ncsc2c1 [Example 137, N-(2-phenylthiazol-4-yl)benzo[d]thiazole-6-sulfonamide]"
10,7 µM,"Cc1cc(S(=O)(=O)Nc2cccc(C(=O)N3CCc4cn[nH]c4C3)c2)c(C)cc1Cl [Example 107, 4-chloro-2,5-dimethyl-N-(3-(4,5,6,7-tetrahydro-1H-pyrazolo[3,4-c]pyridine-6-carbonyl)phenyl)benzenesulfonamide]"
11,7 µM,"O=S(=O)(Nc1csc(-c2ccccc2)n1)c1ccccc1Cl [Example 125, 2-chloro-N-(2-phenylthiazol-4-yl)benzenesulfonamide]"
12,23 µM,"Cc1ccc(C)c(S(=O)(=O)Nc2cccc(C(=O)N[C@@H](C)C3CC3)c2)c1 [Example 8, (S)-N-(1-cyclopropylethyl)-3-((2,5-dimethylphenyl)sulfonamido)benzamide]"
13,> 100 µM,"O=S(=O)(Nc1csc(-c2ccccc2)n1)c1cccnc1 [Example 121, N-(2-phenylthiazol-4-yl)pyridine-3-sulfonamide]"
14,> 100 µM,"Cc1cc(S(=O)(=O)Nc2cccc(C(=O)N(C)c3ccccn3)c2)c(C)cc1Cl [Example 109, 3-((4-chloro-2,5-dimethylphenyl)sulfonamido)-N-methyl-N-(pyridin-2-yl)benzamide]"
15,2 µM,"Cc1cc(Cl)ccc1S(=O)(=O)Nc1csc(-c2ccccc2)n1 [Example 135, 4-chloro-2-methyl-N-(2-phenylthiazol-4-yl)benzenesulfonamide]"
16,> 100 µM,"Cc1cc(S(=O)(=O)Nc2cccc(-c3ncc(-c4nnn[nH]4)s3)c2)c(C)cc1Cl [Example 97, N-(3-(5-(1H-tetrazol-5-yl)thiazol-2-yl)phenyl)-4-chloro-2,5-dimethylbenzenesulfonamide]"
17,8 µM,"Cc1cc(S(=O)(=O)Nc2cccc(-c3ccn(C)n3)c2)c(C)cc1Cl [Example 18, 4-chloro-2,5-dimethyl-N-(3-(1-methyl-1H-pyrazol-3-yl)phenyl)benzenesulfonamide]"
18,13 µM,"Cc1ccc(C)c(S(=O)(=O)Nc2cccc(C(=O)N3CCOCC3C#N)c2)c1 (centres unmarked) [Example 7, N-(3-(3-cyanomorpholine-4-carbonyl)phenyl)-2,5-dimethylbenzenesulfonamide]"
19,> 100 µM,"Cc1cc(S(=O)(=O)N[C@H]2CCCN(C(=O)c3ccccc3)C2)c(C)cc1Cl [Example 129, (S)-N-(1-benzoylpiperidin-3-yl)-4-chloro-2,5-dimethylbenzenesulfonamide]"
20,9 µM,"Cc1cnc(-c2ccc(C)c(NS(=O)(=O)c3cc(C)c(Cl)cc3C)c2)s1 [Example 98, 4-chloro-2,5-dimethyl-N-(2-methyl-5-(5-methylthiazol-2-yl)phenyl)benzenesulfonamide]"
21,16 µM,"Cc1cc(S(=O)(=O)Nc2cccc(C(=O)N(C)C(C)CO)c2)c(C)cc1Cl (single isomer, unassigned) [Example 14, 3-((4-chloro-2,5-dimethylphenyl)sulfonamido)-N-(1-hydroxypropan-2-yl)-N-methylbenzamide]"
22,> 100 µM,"Cc1cc(S(=O)(=O)N[C@H]2CCCN(C(=O)[C@@H]3CCCN3C)C2)c(C)cc1Cl [Example 101, 4-chloro-2,5-dimethyl-N-((S)-1-(methyl-L-prolyl)piperidin-3-yl)benzenesulfonamide]"
23,2 µM,"Cc1cc(S(=O)(=O)Nc2cccc(C(=O)N3CCCC3)c2)c(C)cc1Cl [Example 119, 4-chloro-2,5-dimethyl-N-(3-(pyrrolidine-1-carbonyl)phenyl) benzenesulfonamide]"
24,> 100 µM,"O=S(=O)(Nc1csc(-c2ccccc2)n1)c1ccc(F)cc1F [Example 140, 2,4-difluoro-N-(2-phenylthiazol-4-yl)benzenesulfonamide]"
25,> 100 µM,"Cc1cc(S(=O)(=O)Nc2nc(-c3ccccc3)ns2)c(C)cc1Cl [Example 132, 4-chloro-2,5-dimethyl-N-(3-phenyl-1,2,4-thiadiazol-5-yl)benzenesulfonamide]"
26,0.4 µM,"Cc1cnc(-c2ccc(Cl)c(NS(=O)(=O)c3cc(C)c(Cl)cc3C)c2)s1 [Example 102, 4-chloro-N-(2-chloro-5-(5-methylthiazol-2-yl)phenyl)-2,5-dimethylbenzenesulfonamide]"
